The subject of test [1] is children with HGPS. The note with it: children with HGPS treated with lonafarnib in clinical trials; cited from earlier work.
Test [2] relates to plasma progerin. Nature of the test: Plasma progerin (SMC Progerin Immunoassay) in HGPS clinical trial patients on therapy. It is filed as in vivo, human. An excerpt: An SMC ultrasensitive immunoassay for the detection of plasma progerin was developed. Overall, the assay employed a sandwich immunoassay format with an anti-lamin A capture antibody coated on magnetic microparticles, and an anti-progerin specific detection antibody conjugated to a fluorescent tag (FIG. 1) run in a 96-well plate. Progerin-bound detection antibody was eluted and read as single molecules using a confocal laser.
The SMC assay for measuring Progerin was as previously described (Todd et al.), except that magnetic microparticles (MP) coated with capture antibodies and detection reagents were specific to the progerin assay (FIG. 1). […] Progerin-bound detection antibody was then eluted by pH shift using a proprietary glycine buffer, transferred to a new plate and detected by SMC using the Erenna Immunoassay System software (SgxLink™). The raw signal data and the interpolated value data obtained from SgxLink were transferred to Excel where precision was then calculated for the replicate wells. […]
For analysis, samples were fully thawed at RT for <5 min, lightly mixed, diluted in standard diluent before transferring into filter plate wells (MilliporeSigma MSBVN1210). […] Filtrate was then assessed as described. […]

SMILES strings stand for the structures.

The values below come from US20250060373A1, “NOVEL ASSAY AND NOVEL METHODS OF TREATING HUTCHINSON-GILFORD PROGERIA SYNDROME” (The Progeria Research Foundation, priority 2021, published 2025).

Take `NC(=O)N1CCC(CC(=O)N2CCC([C@H]3c4ncc(Br)cc4CCc4cc(Cl)cc(Br)c43)CC2)CC1` [lonafarnib]: the “increased survival, estimated, on average” value in test [1] is 2.5 years. Also, the “average progerin, lonafarnib monotherapy extension visits versus consecutive Triple Therapy visits” value in test [2] (10 patients, extension of additional 4.1±0.5 years, p=0.99) is “no significant differences”. Further, the “progerin at 150 mg/m^2 versus the 115 mg/m^2 dose” value in test [2] (ProLon1, each of the 4 trial visits after the 8-month visit, N=22-25, all p<0.05) is given as “significantly decreased”.
